The source of these data is US7420051B2, “Synthetic process for the manufacture of an ecteinaschidin compound” (Pharma Mar, S.A., priority 2000, dated 2008).

What all share (format): cell-based
Experiment [1] relates to P-388 (suspension culture of a lymphoid neoplasm from DBA/2 mouse). Briefly: Cytotoxic activity screening, P-388 cells. Particulars: Mus musculus, P388, 72 h, three days of incubation, approximate IC50. The protocol: (§1) Cell Cultures. Cells were maintained in logarithmic phase of growth in Eagle's Minimum Essential Medium, with Earle's Balanced Salts, with 2.0 mM L-glutamine, with non-essential amino acids, without sodium bicarbonate (EMEM/neaa); supplemented with 10% Fetal Calf Serum (FCS), 10^−2 M sodium bicarbonate and 0.1 g/l penicillin-G+streptomycin sulfate.
(§2) A simple screening procedure has been carried out to determine and compare the antitumour activity of these compounds, using an adapted form of the method described by Bergeron et al (1984). The tumour cell line employed have been P-388 (suspension culture of a lymphoid neoplasm from DBA/2 mouse), A-549 (monolayer culture of a human lung carcinoma), HT-29 (monolayer culture of a human colon carcinoma) and MEL-28 (monolayer culture of a human melanoma).
P-388 cell were seeded into 16 mm wells at 1×10^4 cells per well in 1 ml aliquots of MEM 5FCS containing the indicated concentration of drug. A separate set of cultures without drug was seeded as control growth to ensure that cells remained in exponential phase of growth. All determinations were carried out in duplicate.

Experiment [2] has as its system HT-29 (monolayer culture of a human colon carcinoma). The experiment in a line: Cytotoxic activity screening, HT-29 cells. The following applies: Homo sapiens, HT-29, 72 h, three days of incubation, Crystal Violet, approximate IC50. The method, then: as §1, §2
(§3) A-549, HT-29 and MEL-28 were seeded into 16 mm wells at 2×10^4 cells per well in 1 ml aliquots of MEM 10FCS containing the indicated concentration of drug. A separate set of cultures without drug was seeded as control growth to ensure that cells remained in exponential phase of growth. All determinations were carried out in duplicate. After three days of incubation at 37° C., 10% CO2 in a 98% humid atmosphere, the wells were stained with 0.1% Crystal Violet. An approximately IC50 was determined by comparing the growth in wells with drug to the growth in wells control.

The subject of experiment [3] is MEL-28 (monolayer culture of a human melanoma). Briefly: Cytotoxic activity screening, MEL-28 cells. Particulars: SK-MEL-28, 72 h, three days of incubation, Crystal Violet, approximate IC50. The protocol:
as §1, §2, §3

The test system of experiment [4] is A-549 (monolayer culture of a human lung carcinoma). Briefly: Cytotoxic activity screening, A-549 cells. The following applies: Homo sapiens, A549, 72 h, three days of incubation, Crystal Violet, approximate IC50. The protocol:
as §1, §2, §3

Experiment [5] concerns DU-145. Briefly: Cytotoxic activity screening, DU-145 cells. The following applies: Homo sapiens, DU-145, DU-145 cells.

Bounds are passed on as bounds.

In the case of `COCOc1c(OC)c(C)cc2c1[C@@H]1C3CC4=C(C(=O)C(OC)=C(C)C4=O)[C@H](CNC(=O)[C@H](C)NC(=O)OC(C)(C)C)N3[C@@H](C#N)[C@H](C2)N1C` (stereo partly drawn), the concentration for half-maximal inhibition (IC50) in experiment [1], in experiment [2], in experiment [3] and in experiment [4] was 1.44 µM throughout.
Take `COCOc1c(OC)c(C)cc2c1[C@@H]1C3CC4=C(C(=O)C(O)=C(C)C4=O)[C@H](CNC(=O)[C@H](C)NC(=O)OC(C)(C)C)N3[C@@H](C#N)[C@H](C2)N1C` (stereo partly drawn): the 50% inhibitory concentration (IC50) in experiment [1], in experiment [2], in experiment [3] and in experiment [4] was over 1.5 µM each time.
With `COCOc1c(OC)c(C)cc2c1[C@@H]1C3Cc4c(OC(C)=O)c(C)c5c(c4[C@H](CNC(=O)[C@H](C)NC(=O)OC(C)(C)C)N3[C@@H](C#N)[C@H](C2)N1C)OCO5` (stereo partly drawn), the IC50 in experiment [1], in experiment [5], in experiment [2], in experiment [3] and in experiment [4] was 0.13 µM in each case.
For the compound `COc1c(C)cc2c(c1O)[C@@H]1C3Cc4c(OC(C)=O)c(C)c5c(c4[C@H](CNC(=O)[C@H](C)N)N3[C@@H](C#N)[C@H](C2)N1C)OCO5` (stereo partly drawn), the half-inhibitory concentration (IC50) was found to be 0.008 µM in experiment [1]; 0.016 µM in experiment [5]; 0.008 µM in experiment [2]; 0.008 µM in experiment [3]; 0.016 µM in experiment [4].
Take `COc1c(C)cc2c(c1O)[C@@H]1C3Cc4c(OC(C)=O)c(C)c5c(c4[C@H](CNC(=O)[C@H](C)NC(=S)Nc4ccccc4)N3[C@@H](C#N)[C@H](C2)N1C)OCO5` (stereo partly drawn): the concentration for half-maximal inhibition (IC50) in experiment [1], in experiment [5], in experiment [2], in experiment [3] and in experiment [4] was 0.001 µM in each case.
For the compound `COc1c(C)cc2c(c1O)[C@@H]1C3Cc4c(OC(C)=O)c(C)c5c(c4[C@H](CN)N3[C@@H](C#N)[C@H](C2)N1C)OCO5` (stereo partly drawn), the IC50 in experiment [1], in experiment [5], in experiment [2], in experiment [3] and in experiment [4] was 0.01 µM throughout.
In the case of `COCOc1c(OC)c(C)cc2c1[C@@H]1C3Cc4c(O)c(C)c5c(c4[C@H](CNC(C)=O)N3[C@@H](C#N)[C@H](C2)N1C)OCO5` (stereo partly drawn), the IC50 in experiment [1], in experiment [5], in experiment [2], in experiment [3] and in experiment [4] was over 1.77 µM each time.
Consider `C=CCOc1c(C)c2c(c3c1CC1[C@H]4c5c(cc(C)c(OC)c5OCOC)C[C@@H]([C@H](C#N)N1[C@H]3CNC(C)=O)N4C)OCO2` (stereo partly drawn), for which the IC50 in experiment [1], in experiment [5], in experiment [2], in experiment [3] and in experiment [4] was over 1.65 µM in each case.
Take `COCOc1c(OC)c(C)cc2c1[C@@H]1C3Cc4c(OC(C)=O)c(C)c5c(c4[C@H](CNC(C)=O)N3[C@@H](C#N)[C@H](C2)N1C)OCO5` (stereo partly drawn): the IC50 in experiment [1], in experiment [5], in experiment [2], in experiment [3] and in experiment [4] was 0.016 µM each time.
Regarding `COc1c(C)cc2c(c1O)[C@@H]1C3Cc4c(OC(C)=O)c(C)c5c(c4[C@H](CNC(C)=O)N3[C@@H](C#N)[C@H](C2)N1C)OCO5` (stereo partly drawn), the concentration for half-maximal inhibition (IC50) in experiment [1], in experiment [5], in experiment [2], in experiment [3] and in experiment [4] was 0.001 µM in each case.
In the case of `COc1c(C)cc2c(c1O)[C@@H]1C3Cc4c(OC(C)=O)c(C)c5c(c4[C@H](CNC(=O)CC(C)C)N3[C@@H](C#N)[C@H](C2)N1C)OCO5` (stereo partly drawn), the half-maximal inhibitory concentration (IC50) amounted to 0.0008 µM in experiment [1], 0.001 µM in experiment [5], 0.0008 µM in experiment [3] and 0.001 µM in experiment [4].
In the case of `C/C=C(\OC(C)=O)C1=C(C2=COCO2)[C@H](CNC(=O)CCCC)N2C(C1)[C@H]1c3c(cc(C)c(OC)c3O)C[C@@H]([C@@H]2C#N)N1C` (stereo partly drawn), the half-inhibitory concentration (IC50) in experiment [1], in experiment [5], in experiment [2], in experiment [3] and in experiment [4] was 0.007 µM in each case.
On to `COc1c(C)cc2c(c1O)[C@@H]1C3Cc4c(OC(C)=O)c(C)c5c(c4[C@H](CNC(=O)[C@@H](C)NC(=O)CC(C)C)N3[C@@H](C#N)[C@H](C2)N1C)OCO5` (stereo partly drawn), for which the 50% inhibitory concentration (IC50) in experiment [1], in experiment [5], in experiment [2], in experiment [3] and in experiment [4] was 0.0001 µM throughout.
For `COc1c(C)cc2c(c1O)[C@@H]1C3Cc4c(OC(C)=O)c(C)c5c(c4[C@H](CNC(=O)[C@@H](C)NC(=O)/C=C/c4cccc(C(F)(F)F)c4)N3[C@@H](C#N)[C@H](C2)N1C)OCO5` (stereo partly drawn), the 50% inhibitory concentration (IC50) in experiment [1], in experiment [5], in experiment [2], in experiment [3] and in experiment [4] was 0.001 µM in each case.
Turning to `COc1c(C)cc2c(c1O)[C@@H]1C3Cc4c(OC(C)=O)c(C)c5c(c4[C@H](CNC(=O)[C@H](C)NC(=O)C(F)(F)F)N3[C@@H](C#N)[C@H](C2)N1C)OCO5` (stereo partly drawn), the half-maximal inhibitory concentration (IC50) in experiment [1], in experiment [5], in experiment [2], in experiment [3] and in experiment [4] was 0.0001 µM in each case.
As to `C=CCOc1c(C)c2c(c3c1CC1[C@H]4c5c(cc(C)c(OC)c5O)C[C@@H]([C@H](C#N)N1[C@H]3CNC(=O)[C@H](C)NC(=O)C(F)(F)F)N4C)OCO2` (stereo partly drawn), the half-inhibitory concentration (IC50) in experiment [1], in experiment [5], in experiment [2], in experiment [3] and in experiment [4] was 0.001 µM each time.
As to `COc1c(C)cc2c(c1O)[C@@H]1C3Cc4c(O)c(C)c5c(c4[C@H](CNC(=O)[C@H](C)NC(=O)C(F)(F)F)N3[C@@H](C#N)[C@H](C2)N1C)OCO5` (stereo partly drawn), the IC50 in experiment [1], in experiment [5], in experiment [2], in experiment [3] and in experiment [4] was 0.01 µM in each case.
As to `COc1c(C)cc2c(c1O)[C@@H]1C3Cc4c(O)c(C)c5c(c4[C@H](CNC(=O)[C@H](C)N)N3[C@@H](C#N)[C@H](C2)N1C)OCO5` (stereo partly drawn), the IC50 in experiment [1] turned out to be 0.18 µM; in experiment [5] it was 0.9 µM; in experiment [2], 0.18 µM; in experiment [3] it was 0.8 µM; in experiment [4], 0.9 µM.
Take `COc1c(C)cc2c(c1O)[C@@H]1C3Cc4c(O)c(C)c5c(c4[C@H](CNC(=O)[C@H](C)NC(=S)Nc4ccccc4)N3[C@@H](C#N)[C@H](C2)N1C)OCO5` (stereo partly drawn): the IC50 in experiment [1], in experiment [5], in experiment [2], in experiment [3] and in experiment [4] was 0.14 µM throughout.
In the case of `COc1c(C)cc2c(c1O)[C@@H]1C3Cc4c(OC(C)=O)c(C)c5c(c4[C@H](CNC(=O)[C@H](C)NC(=O)/C=C/c4ccccc4)N3[C@@H](C#N)[C@H](C2)N1C)OCO5` (stereo partly drawn), the IC50 came to 0.001 µM in experiment [1]; 0.0005 µM in experiment [5]; 0.0005 µM in experiment [2]; 0.001 µM in experiment [3]; 0.001 µM in experiment [4].
As for `CCCC(=O)N[C@H](C)C(=O)NC[C@H]1c2c(c(OC(C)=O)c(C)c3c2OCO3)CC2[C@H]3c4c(cc(C)c(OC)c4O)C[C@@H]([C@H](C#N)N21)N3C` (stereo partly drawn), the half-inhibitory concentration (IC50) in experiment [1] was 0.001 µM; in experiment [5], 0.001 µM; in experiment [2], 0.0005 µM; in experiment [3], 0.0005 µM; in experiment [4] it was 0.001 µM.
In the case of `C/C=C(\OC(C)=O)C1=C(C2=COCO2)[C@H](CNC(=O)/C=C/c2ccccc2)N2C(C1)[C@H]1c3c(cc(C)c(OC)c3O)C[C@@H]([C@@H]2C#N)N1C` (stereo partly drawn), the IC50 in experiment [1], in experiment [5], in experiment [2], in experiment [3] and in experiment [4] was 0.0001 µM each time.
On to `COc1c(C)cc2c(c1O)[C@@H]1C3Cc4c(OC(C)=O)c(C)c5c(c4[C@H](CNC(=O)[C@H](C)NC(=O)CCCl)N3[C@@H](C#N)[C@H](C2)N1C)OCO5` (stereo partly drawn), for which the 50% inhibitory concentration (IC50) in experiment [1], in experiment [5], in experiment [2], in experiment [3] and in experiment [4] was 0.001 µM throughout.
For `CCCC(=O)NC[C@H]1c2c(c(OC(C)=O)c(C)c3c2OCO3)CC2[C@H]3c4c(cc(C)c(OC)c4O)C[C@@H]([C@H](C#N)N21)N3C` (stereo partly drawn), the IC50 in experiment [1] stood at 0.0001 µM; in experiment [5], 0.0005 µM; in experiment [2], 0.0001 µM; in experiment [3], 0.0001 µM; in experiment [4] it was 0.0005 µM.

A word on the IC50: it is the concentration that inhibits the measured activity by half.
